From US7192607B2, “Formulations for the prevention or the treatment of diseases affecting mucosae or skin, or for pregnancy prevention, and an applicator for the delivery of topical formulations into mucosal cavities” (Infectio Recherche Inc, priority 2002, dated 2007)

Test system: HIV-1 (strain NL4-3)
Experiment: Infectivity of HIV-1 (strain NL4-3) pretreated with SLS to 1G5 cells (luciferase activity)
Type: cell-based
Details: virus pretreated with 500 μM SLS for 1 h at 37° C.; FIG. 3
Experimental: The effect of pretreating HIV-1 (strain NL4-3) with SLS on its infectivity to 1G5 cells, a Jurkat E6-1 derivative that harbors two stably integrated constructs made up of the luciferase gene under the control of the HIV-1SF2 LTR, has been also evaluated. In brief, prior to infection, the virus was incubated with either culture medium or 500 μM SLS for 1 h at 37° C. Cells (1×10^5 cells/well) were then incubated with HIV-1 strain NL4-3 (10 ng of p24) for 2 h at 37° C. under a 5% CO2 atmosphere. Afterwards, cells were washed, resuspended in 200 μl of complete culture medium and transferred in a 96-well flat-bottomed tissue culture plate (Microtest III, Falcon; Becton Dickinson, Lincoln Park, N.J.). After a 48 h incubation time at 37° C., cells were lysed, subject to a freeze-thaw cycle and luciferase activity was monitored using a microplate luminometer (MLX; Dynex Technologies, Chantilly, Va.).

CCCCCCCCCCCCOS(=O)(=O)[O-].[Na+] [SLS, Sodium lauryl sulfate]
HIV-1 infectivity to 1G5 cells: almost completely inhibited
